We go through 13 compounds from publication PMC11598835 (Viruses, 2024).

Each structure is given as a SMILES string. Values after ≈ are worked out from the molar mass of the structure shown. Like-named read-outs stand apart in the source and are kept apart here.

Series [1] has as its system SARS-CoV-2 B.1 lineage isolate.
For series [2], the system named is SARS-CoV-2 B.1 lineage isolate. The series is described as follows: microbe, parasite or virus in culture. Conditions: Severe acute respiratory syndrome coronavirus 2, Calu-3, 24 h.
A further series concerns HIV-1. The arrangement: method as in ref 15 = [15]. Particulars: read-out: EC50, antiviral activity for HIV-1; cited from earlier work.
The next series has as its system SARS-CoV-2. Conditions: read-out: EC50, anti-SARS-CoV-2; cited from earlier work.
A further series can be described thus: in vitro. Format: cell-based. Conditions: human.
Series [3] has as its target Recombinant SARS-CoV-2 Mpro (Severe acute respiratory syndrome coronavirus 2, UniProt P0DTD1). The series is described as follows: Protease inhibition FRET assay, Mpro. It counts as biochemical. Conditions: Mpro 1.5 μM, substrate 50 μM.
The target in series [4] is Recombinant SARS-CoV-2 PLpro (Severe acute respiratory syndrome coronavirus 2, UniProt P0DTD1). The series is described as follows: biochemical. Conditions: FRET, PLpro 1 μM.
A short description of the next series: physchem. Conditions: water, thermodynamic from solid. Format: physicochemical.
Series [5] can be described thus: In vivo plasma pharmacokinetics in rats. Conditions: male, Wistar, ip, rat.
For series [6] the following is noted: cited from earlier work.
[7] abbreviates: read-out: Inhibition of Viral Replication in Calu-3 (%).
Where [8] appears, read: read-out: difference in SARS-CoV-2 inhibition compared to compound 4a.

`O=C1c2ccccc2C(=O)c2c1[nH]c1ccc(F)cc21` [4g, 2-Fluoro-5H-benzo[b]carbazole-6,11-dione]: in series [1] (10 µM), the “Inhibition of Viral Replication in Calu-3 (%)” value (shortened to “Inhibition … (%)”) is recorded as 69%. The inhibition at 10 µM in series [2] (setting [7]) is 69.4%.
Regarding `COc1cc2[nH]c3ccccc3c2cc1C=O` [O-Methylmukonal], the EC50 in the series with HIV-1 is 12 µM.
For `CCOC(=O)c1ccc2[nH]c3c(c2c1)C(=O)c1ccccc1C3=O` [4f, Ethyl 6,11-dioxo-6,11-dihydro-5H-benzo[b]carbazole-2-carboxylate], the “Inhibition … (%)” value in series [1] (10 µM) turned out to be 64%. For the same compound, the inhibition at 10 µM in series [2] (setting [7]) came to 64%.
As to `CC(C)C(=O)OC[C@H]1O[C@@H](n2ccc(NO)nc2=O)[C@H](O)[C@@H]1O` [Molnupiravir], the EC50 with SARS-CoV-2 was 1.96 µM.
In “in vitro”, `COc1ccc2[nH]c3c(c2c1)C(=O)c1ccccc1C3=O` [4b, 2-Methoxy-5H-benzo[b]carbazole-6,11-dione] displayed a CC50 at 72 h of more than 200 µM. The results for the IC50 in series [3] and in [4] were 0.37 ± 0.05 µM and 72.1 ± 0.1 µM, respectively. In series [1], the “SI (CC50/EC50)” value was more than 119.0. The “selectivity indexes (SI), conclusions” value in [1] is more than 50 µM. Besides, in series [1] (10 µM), the “difference in SARS-CoV-2 inhibition compared to compound 4a” value is “no significant change”. Further, the inhibition at 10 µM in [2] (setting [7]) came to 96.2%.
On to `COc1cc(OC)c2[nH]c3c(c2c1)C(=O)c1ccccc1C3=O` [4e, 2,4-Dimethoxy-5H-benzo[b]carbazole-6,11-dione], for which the inhibition at 10 µM in series [2] (setting [7]) worked out at 47.1%; in series [2] (setting [8]), 47.4%.
For `CCC(CC)COC(=O)[C@H](C)N[P@](=O)(OC[C@H]1O[C@@](C#N)(c2ccc3c(N)ncnn23)[C@H](O)[C@@H]1O)Oc1ccccc1` [Remdesivir], in the series on SARS-CoV-2, the EC50 is 2.49 µM.
Turning to `O=C1c2ccccc2C(=O)c2c1[nH]c1ccccc21` [4a, 5H-Benzo[b]carbazole-6,11-dione], the CC50 at 72 h in the series “in vitro” is more than 200 µM. Further, the IC50 in series [3] turned out to be 0.11 ± 0.05 µM. For the same compound, the half-inhibitory concentration (IC50) in [4] was determined as 153 ± 0.1 µM. This compound registered a solubility in the series “physchem” of 1.43 µg/mL (≈ 5.78 µM). In series [5] (plasma, 5 mg/kg i.p.), the CL/F is 1.87 L/h/kg. In [5] (plasma, 5 mg/kg i.p., read-out: Vz/F), the Vd/F is 98 ± 186 L/kg. Also, in series [5] (plasma, 5 mg/kg i.p., read-out: t1/2,z (converted)), the half-life was 37 ± 60 h. In addition, in series [5] (in vivo, 5 mg/kg), the concentration peaked (Cmax) at 0.77 ± 0.12 µM, the Tmax was 0.333 h and the concentration at 24 h was found to be 0.12 ± 0.04 µM. In series [1], the “SI (CC50/EC50)” value is listed as more than 266.7 and the “selectivity indexes (SI), conclusions” value was more than 50 µM. In series [2] (setting [7]), the inhibition at 10 µM was found to be 94.6%.
On to `COc1cccc2c3c([nH]c12)C(=O)c1ccccc1C3=O` [4d, 4-Methoxy-5H-benzo[b]carbazole-6,11-dione], for which the CC50 at 72 h in “in vitro” is more than 200 µM. The values for the IC50 in series [3] and in [4] were more than 200 µM and 190.8 ± 0.1 µM, respectively. Moreover, in series [1], the “SI (CC50/EC50)” value was more than 141.8. Further, the “selectivity indexes (SI), conclusions” value in [1] is more than 50 µM. In addition, the inhibition at 10 µM came out at 86.5% in [2] (setting [7]) and 8.1% in series [2] (setting [8]).
For the compound `O=C1c2ccccc2C(=O)c2c1[nH]c1c2ccc2ccccc21` [4i, 7H-Dibenzo[a,h]carbazole-7,12(13H)-dione], in the series “in vitro”, the CC50 at 72 h is more than 200 µM and the viability at 72 h, 100 µM is 68%. In addition, the IC50 in series [3] was more than 200 µM. In addition, the IC50 in series [4] is 148.7 ± 0.6 µM. In series [1], the EC50 amounted to 3.73 ± 0.6 µM; the “SI (CC50/EC50)” value is more than 53.7; the “selectivity indexes (SI), conclusions” value is more than 50 µM. This compound displayed an EC50 in [2] of less than 4 µM. In [2] (setting [7]), the inhibition at 10 µM came to 85.9%.
As to `COC(=O)N[C@H](C(=O)N[C@@H](Cc1ccccc1)[C@@H](O)CN(Cc1ccc(-c2ccccn2)cc1)NC(=O)[C@@H](NC(=O)OC)C(C)(C)C)C(C)(C)C` [Atazanavir], the “free fraction, experimental data” value in series [6] was 14%.
`CC(C)(C)[C@H](NC(=O)C(F)(F)F)C(=O)N1C[C@H]2[C@@H]([C@H]1C(=O)N[C@H](C#N)C[C@@H]1CCNC1=O)C2(C)C` [Nirmatrelvir]: the half-maximal effective concentration (EC50) in the series on SARS-CoV-2 was 0.1 µM.
For `Cc1ccc2[nH]c3c(c2c1)C(=O)c1ccccc1C3=O` [4c, 2-Methyl-5H-benzo[b]carbazole-6,11-dione], the “Inhibition … (%)” value in series [1] (10 µM) is listed as “ineffective”.
